In patent US20230203016A1, “DICARBOXYLIC ACID BISAMIDE DERIVATIVES, USE THEREOF, PHARMACEUTICAL COMPOSITION BASED THEREON AND METHODS FOR PRODUCING DICARBOXYLIC ACID BISAMIDE DERIVATIVES” (TREAMID THERAPEUTICS GMBH, priority 2013, published 2023):

Tests used:
[1] = Stability constants of complexes with zinc ions by pH-metric titration, Bjerrum method; format: physicochemical; conditions: aqueous solution, CL = 0.02M, M^z+/L = 1:6, ion strength 0.5 (KNO3), 22° C.; for The first stability constant, lgK1 (zinc ions) / The second stability constant, lgK2 (zinc ions) / The third stability constant, lgK3 (zinc ions): Table 5; for The first stability constant of complexes with 1:1 compositions, lgK1, Zn (II): Table 4
Protocol: (§1) Initial 0.05 M solutions of M^z+ metal ions were prepared from nitrates of zinc (Zn(NO3)2·6H2O), calcium (Ca(NO3)2·4H2O), copper sulfate (CuSO4·5H2O), magnesium chloride (MgCl2·6H2O) and Mohr's salt ((NH4)2Fe(SO4)2·6H2O). Standardization of the initial solutions of M^z+ salts was performed by a complexometric titration method with trilon B (M^z+=Zn^2+, Cu^2+, Mg^2+, Ca^2+) and a spectrophotometric method at 490 nm by using o-phenanthroline (M^z+=Fe^2+).
(§2) Given the parameters, such as the amount of a studied compound required for potentiometric titration, a testing procedure and a constant calculation method, the Bjerrum method is most suitable and informative [Yu. P. Galaktionov, M. A. Chistyakov, V. G. Sevastiyanov, etc., “Step Stability Constants of Group IIIB Metal and Lanthanide Complexes with Acetylacetone in Aqueous Solution and the Solubility Products of Metal Triacetylacctonates”, Journal of physical chemistry, 2004, v. 78, No. 9, pp. 1596-1604].
(§3) The method is based on the view that the process of complex formation is stepwise. A main assumption of the Bjerrum method is an assumption about the formation of only […] complexes. The process of complex formation can be schematically described as follows:
(§4) According to the Bjerrum method, a studied compound is titrated with a NaOH solution twice: in the absence of and in the presence of a metal ion. The titration is performed under a high constant concentration of an indifferent electrolyte, which provides the solution with a constant ionic strength.
(§5) For these purposes, highly soluble salts are used, for example, sodium and potassium salts. Concentration step stability constants (Kn) are determined from experiments. In addition, the method provides information concerning the composition of a formed complex, in particular, the maximum possible number of bound ligands (n).
(§6) Traditional procedure for determining step stability constants for complexes by the Bjerrum method of pH-metric titration was performed as follows.
(§7) A sample of a studies compound (3·10^−4 mol) was dissolved in 14.0 ml of a 0.5M aqueous KNO3 solution. One ml of a 0.05M aqueous solution of an M^z+ salt was added under vigorous stirring. The systems were studied with a M^z+/L ratio of 1:6. The pH value of a solution was fixed for coexisting ligands and metal ions. The mixture was titrated with a 0.05M NaOH aqueous solution within a broad range of pH values (up to pH 11.0-11.5). The amount of the used titrant (VNaOH, ml) and the pH value of the solution were registered in each titration point. At the moment when a residue formed, the solution became turbid, or the color of the solution changed, the pH value, the nature of the change and the amount of NaOH spent for the titration were registered. The step of titration was 0.25 ml. The value of lgKn was determined by the Bjerrum curve n=f(pA) for each semi-integer value of the function of complex formation n=n−0.5.
Today the Bjerrum method is frequently used to study complex formation processes. This method provides for the determination of two parameters: the concentration of a free ligand under equilibrium conditions ([L^−]) and the function of complex formation n which is the average number of ligands involved in the complex. Thus, using experimental data, the value [L^−] can be calculated for each time point of the titration (in particular, −lg[L^−]=pA), and n can be calculated by equation (1). When a ligand has several dissociating groups, the KL value in equation (1) matches the value of the dissociation constant with the largest pk value.
The Kn value is found from the Bjerrum curve (curve of the complex formation) n=f(pA) plotted according to equation (2) for each semi-integer value (n=n−0.5) of the function of the complex formation. Thus, the step stability constant will be equal to the reciprocal concentration of a free ligand at a point of n=n−0.5. […]

[2] = First stability constant of complexes with Fe (III) by pH-metric titration, Bjerrum method; format: physicochemical; conditions: aqueous solution, CL = 0.02M; M^z+/L = 1:6; ion strength 0.5 (KNO3), 22° C.
Excerpt: as §2, §3, §4, §5, §6, §7
(§8) Today the Bjerrum method is frequently used to study complex formation processes. […] Thus, using experimental data, the value [L^−] can be calculated for each time point of the titration (in particular, −lg[L^−]=pA), and n can be calculated by equation (1). […]

[3] = First stability constant of complexes with magnesium ions by pH-metric titration, Bjerrum method; format: physicochemical; conditions: aqueous solution, CL = 0.02M; M^z+/L = 1:6; ion strength 0.5 (KNO3), 22° C.
Protocol: as §1, §2, §3, §4, §5, §6
(§9) A sample of a studies compound (3·10^−4 mol) was dissolved in 14.0 ml of a 0.5M aqueous KNO3 solution. One ml of a 0.05M aqueous solution of an M^z+ salt was added under vigorous stirring. The systems were studied with a M^z+/L ratio of 1:6. The pH value of a solution was fixed for coexisting ligands and metal ions. […] The value of lgKn was determined by the Bjerrum curve n=f(pA) for each semi-integer value of the function of complex formation n=n−0.5.
as §8

[4] = First stability constant of complexes with copper ions by pH-metric titration, Bjerrum method; format: physicochemical; conditions: aqueous solution, CL = 0.02M; M^z+/L = 1:6; ion strength 0.5 (KNO3), 22° C.
Protocol: as §1, §2, §3, §4, §5, §6, §9, §8

[5] = First stability constant of complexes with Fe (II) by pH-metric titration, Bjerrum method; format: physicochemical; conditions: aqueous solution, CL = 0.02M; M^z+/L = 1:6; ion strength 0.5 (KNO3), 22° C.
Protocol: as §1, §2, §3, §4, §5, §6, §9, §8

[6] = Acid dissociation constants (pk) by pH-potentiometric titration, Schwarzenbach method; format: physicochemical; conditions: aqueous solution, C = 0.02M, ionic strength 0.5 (KNO3), 22° C.; for pk1: titration with 0.05M HCl aqueous solution (footnote 1); for pk2: titration with 0.05M aqueous NaOH solution (footnote 2)
Protocol: An important property of a ligand to form a complex is dissociation constants (pkn) of studied compounds in an aqueous solution. The pkn values are determined by a potentiometric titration method. The calculation of dissociation constants are performed by the Schwarzenbach method [Grinberg A. A., “An introduction to the chemistry of complex compounds”, fourth ed., Amend., L., Khimiya, 1971].
Titration was performed on an apparatus by using a laboratory ionomer I 120.1. A designed galvanic cell consisted of two electrodes, in particular an indicator glass electrode and a silver chloride comparison electrode. The pH value was measured with an accuracy of ±0.2.
A traditional method for determining acid dissociation step constants (k1, . . . , kn) by using pH-metric titration is the Schwarzenbach method.
A sample of a studied compound (3·10^−4 mol) was dissolved in 15.0 ml of a 0.5M aqueous KNO3 solution. The obtained […] solution was titrated with a 0.05M aqueous solution of NaOH or HCl under stirring. The amount (V, ml) of the used titrant and the pH value of the solution were registered in each titration point. A titration step was equal to 0.5 ml, and 0.2 ml in the proximity to the equivalency point. Titration was continued until the pH value of the solution reached 11.0 to 11.5. The pH value of the solution corresponding to a=0.5 and/or a=1.5 was determined by the titration curve pH=f(a), and the amount of added gram-equivalents of the titrant was calculated in terms of 1 mole of a titrated compound.

[7] = Study of the chelating ability (summary statements on complex formation); format: physicochemical; conditions: statement in words
[8] = First stability constant of complexes with calcium ions by pH-metric titration, Bjerrum method; format: physicochemical; conditions: aqueous solution, CL = 0.02M; M^z+/L = 1:6; ion strength 0.5 (KNO3), 22° C.
Protocol: as §1, §2, §3
According to the Bjerrum method, a studied compound is titrated with a NaOH solution twice: in the absence of and in the presence of a metal ion. […]
For these purposes, highly soluble salts are used, for example, sodium and potassium salts. Concentration step stability constants (Kn) are determined from experiments. […]
A sample of a studies compound (3·10^−4 mol) was dissolved in 14.0 ml of a 0.5M aqueous KNO3 solution. […] The value of lgKn was determined by the Bjerrum curve n=f(pA) for each semi-integer value of the function of complex formation n=n−0.5.
as §8

Structure (SMILES): O=C(CCCC(=O)NCCc1nccs1)NCCc1nccs1 [Compound 8]
- The first stability constant, lgK1 (zinc ions) [1]: 6.25
- The second stability constant, lgK2 (zinc ions) [1]: 5.80
- The third stability constant, lgK3 (zinc ions) [1]: 5.05

Structure (SMILES): O=C(CCCC(=O)NCCc1cnc[nH]1)NCCc1cnc[nH]1 [Compound 11, N,N′-bis-[2-(1H-imidazol-4-yl)ethyl]pentanediamide]
- The first stability constant of complexes with 1:1 compositions, lgK1, Fe (III) [2]: 6.60
- melting point: 166 to 168 °C
- The first stability constant of complexes with 1:1 compositions, lgK1, Mg (II) [3]: 2.82
- The first stability constant of complexes with 1:1 compositions, lgK1, Cu (II) [4]: 4.39
- The first stability constant of complexes with 1:1 compositions, lgK1, Zn (II) [1]: 5.05
- The first stability constant, lgK1 (zinc ions) [1]: 5.05
- The second stability constant, lgK2 (zinc ions) [1]: 4.70
- The third stability constant, lgK3 (zinc ions) [1]: 2.87
- The first stability constant of complexes with 1:1 compositions, lgK1, Fe (II) [5]: 6.27
- pk1 [6]: 7.16^(1)
- pk2 [6]: 11.89^(2)
- ability to form complexes with or chelate metal ions [7]: capable of forming complexes with metal ions

Structure (SMILES): O=C(CCCC(=O)NCCc1ncc[nH]1)NCCc1ncc[nH]1 [Compound 10]
- The first stability constant, lgK1 (zinc ions) [1]: 5.50
- The second stability constant, lgK2 (zinc ions) [1]: 5.24
- The third stability constant, lgK3 (zinc ions) [1]: 4.48

Structure (SMILES): O=C(CCCCC(=O)NCCc1cnc[nH]1)NCCc1cnc[nH]1 [Compound 12, N,N′-bis-[2-(1H-imidazol-4-yl)ethyl]hexanediamide]
- The first stability constant of complexes with 1:1 compositions, lgK1, Fe (III) [2]: 6.10
- The first stability constant of complexes with 1:1 compositions, lgK1, Ca (II) [8]: 3.60
- melting point: 184 to 186 °C
- The first stability constant of complexes with 1:1 compositions, lgK1, Mg (II) [3]: 3.72
- The first stability constant of complexes with 1:1 compositions, lgK1, Cu (II) [4]: 4.62
- The first stability constant of complexes with 1:1 compositions, lgK1, Zn (II) [1]: 5.46
- The first stability constant, lgK1 (zinc ions) [1]: 5.46
- The second stability constant, lgK2 (zinc ions) [1]: 5.03
- The third stability constant, lgK3 (zinc ions) [1]: 3.38
- The first stability constant of complexes with 1:1 compositions, lgK1, Fe (II) [5]: 6.40
- pk1 [6]: 7.13^(1)
- pk2 [6]: 11.95^(2)

Structure (SMILES): O=C(CC(=O)NCCc1cnc[nH]1)NCCc1cnc[nH]1 [Compound 2, N,N′-bis-[2-(1H-imidazol-4-yl)ethyl]propanediamide]
- The first stability constant of complexes with 1:1 compositions, lgK1, Fe (III) [2]: 5.29
- The first stability constant of complexes with 1:1 compositions, lgK1, Ca (II) [8]: 2.06
- The first stability constant of complexes with 1:1 compositions, lgK1, Mg (II) [3]: 2.59
- The first stability constant of complexes with 1:1 compositions, lgK1, Cu (II) [4]: 4.17
- The first stability constant of complexes with 1:1 compositions, lgK1, Zn (II) [1]: 4.84
- The first stability constant, lgK1 (zinc ions) [1]: 4.84
- The second stability constant, lgK2 (zinc ions) [1]: 4.50
- The third stability constant, lgK3 (zinc ions) [1]: 2.60
- The first stability constant of complexes with 1:1 compositions, lgK1, Fe (II) [5]: 5.08
- pk1 [6]: 7.11^(1)
- pk2 [6]: 11.27^(2)

Structure (SMILES): O=C(CCC(=O)NCCc1cnc[nH]1)NCCc1cnc[nH]1 [Compound 3, N,N′-bis-[2-(1H-imidazol-4-yl)ethyl]butanediamide]
- The first stability constant of complexes with 1:1 compositions, lgK1, Fe (III) [2]: 6.59
- The first stability constant of complexes with 1:1 compositions, lgK1, Ca (II) [8]: 4.57
- melting point: 230 to 231 °C
- The first stability constant of complexes with 1:1 compositions, lgK1, Mg (II) [3]: 4.36
- The first stability constant of complexes with 1:1 compositions, lgK1, Cu (II) [4]: 5.32
- The first stability constant of complexes with 1:1 compositions, lgK1, Zn (II) [1]: 5.40
- The first stability constant, lgK1 (zinc ions) [1]: 5.40
- The second stability constant, lgK2 (zinc ions) [1]: 5.05
- The third stability constant, lgK3 (zinc ions) [1]: 3.80
- The first stability constant of complexes with 1:1 compositions, lgK1, Fe (II) [5]: 5.95
- pk1 [6]: 6.88
- pk2 [6]: 11.27^(2)

Structure (SMILES): O=C(NCCc1cnc[nH]1)C(=O)NCCc1cnc[nH]1 [Compound 1, N,N′-bis-[2-(1H-imidazol-4-yl)ethyl]ethanediamide]
- The first stability constant, lgK1 (zinc ions) [1]: 4.52
- The second stability constant, lgK2 (zinc ions) [1]: 4.21
- The third stability constant, lgK3 (zinc ions) [1]: 3.75

Structure (SMILES): O=C(NCCc1c[nH]cn1)c1cccc(C(=O)NCCc2c[nH]cn2)c1 [Compound 6, Bis-1,3-(N^β-histaminyl)isophthalic acid]
- The first stability constant, lgK1 (zinc ions) [1]: 5.62
- The second stability constant, lgK2 (zinc ions) [1]: 5.15
- The third stability constant, lgK3 (zinc ions) [1]: 4.04
